Structure (SMILES)	melting point
COc1ccccc1NC(=O)Nc1nc(Nc2ccccc2-c2ccccc2)nc(N(CCC(=O)O)Cc2ccc(C)cc2)n1	102 °C
COc1cnc(CCCOc2cccc(CN3CCCC3)c2)[nH]c1=O	92 to 95 °C
CC(C)(C)OC(=O)NC1CCN(c2ccc(C(=O)O)cc2)CC1	> 300 °C
CC(C)C(=O)NCCCCN1CCN(c2csc3cc(F)ccc23)CC1	130 to 131 °C
CC(=O)[NH+]([O-])C[C@@H]1CN(c2cc(F)c(N3CCN(C(=O)CO)CC3)c(F)c2)C(=O)O1 (some centres undefined)	100 to 105 °C
COc1ccccc1CN=C1C2CCN(CC2)C1C(c1ccccc1)c1ccccc1 (centres undefined)	154 to 158 °C
Cc1cc2c(c(C)c1NC=O)C(c1ccc(C(C)C)cc1)CO2 (centres undefined)	193 to 196 °C
CCOC(=O)c1cnc2c(F)cc(I)cc2c1O	287 to 289 °C
Cc1cc2n[nH]c(=O)n2nc1-c1cccc([N+](=O)[O-])c1	> 300 °C
CC(C)(C)C(Cl)=C(C#N)C#N	52 to 53 °C
COC(=O)C(C(C)C)S(=O)(=O)N(C(C)=O)c1nc(OC)cc(OC)n1 (centres undefined)	100 to 102 °C
COC(=O)c1ccc2cc(C(O)c3ccc4c(c3)C3(C)C5(C)CCC(C5)C3(C)O4)ccc2c1 (centres undefined)	140 to 141 °C
Oc1ccc2cc(-c3nc(-c4ccccc4)sc3Br)ccc2c1Br	198 to 200 °C
CN(C)c1cc(CCl)nc(N)n1	127 to 129 °C
ONc1cc(Cl)ccc1Cl	124 °C
CC(=O)NC(=O)NCC1CC2c3cccc4[nH]c(Br)c(c34)CC2N(C)C1 (centres undefined)	210 to 212 °C
CCc1cccc2c(/C=C/C(=O)N3CCCCC3)cc(OC)c(O)c12	85 to 86 °C
CCN(CC)CCC(=O)Nc1ccc2c(c1)C(=O)c1cc(NC(=O)CCN(CC)CC)ccc1C2=O	193 °C
Cc1ccnc(C(=O)c2[nH]c3cc(Cl)c(F)cc3c2CC(=O)O)c1	220 °C
CCOC(=O)Cc1sc(Sc2ncccc2C(=O)OCC)nc1C	181 to 183 °C

Structure (SMILES)	melting point
COc1cc(C(=O)c2cnc(Cl)nc2Cl)cc(OC)c1OC	140 to 141 °C
CCOC(=O)c1c[nH]c(Br)c1-c1cccc(F)c1	114 to 117 °C
Cc1ccccc1C(Oc1cc(OCc2ccsc2)ccc1C#N)C(=O)O (racemic)	146 to 148 °C
C=C1CCCCCCCSC[C@@H](C(=O)O)NC1=O	184 to 186 °C
CCc1cc(C(=O)c2ccccc2Cl)c(-n2c(C)nnc2CNC(=O)Nc2cccc(CC(=O)OC(C)(C)C)c2)s1	178 to 179 °C
CCCCCNC(=O)N(C)c1cccc(-c2ccc(/C=C(\OCC)C(=O)O)cc2)n1	162 °C
Cn1c(=O)n(SC(Cl)(Cl)Cl)n(-c2ccccc2)c1=O	214 °C
Cc1ccc(SCC(CCC(=O)O)C(=O)O)cc1C (centres undefined)	96 to 98 °C
NC(=O)CCCCn1ccc([N+](=O)[O-])n1	129 to 131 °C
CCOC(=O)/C=C/c1ccc(O)c([N+](=O)[O-])c1	114 to 115 °C
CCCN(CCC(=O)Nc1c(SC)nc(C)nc1N(CC)CC)c1ccccc1	147 to 149 °C
COc1ccc(C2=NN(C3CCN(S(=O)(=O)CCNCC(O)c4ccc(O)c(CO)c4)CC3)C(=O)[C@@H]3CC=CC[C@H]23)cc1OC (some centres undefined)	97 to 99 °C
O=C(c1ccccc1)c1cnn2c(-c3cccc(NC(=O)C4CC4)c3)ccnc12	210 to 212 °C
CN1CCN(c2ccc(N/C=C3\C(=O)NC(=O)c4ccc(C#Cc5ccccc5)cc43)cc2)CC1	169 to 170 °C
CCCCOc1ncc(C(C)=O)cc1-c1nc2c(CC)n(C3CN(CC)C3)nc2c(=O)[nH]1	143 to 144 °C
COc1ccc2c(c1OC)CCN(CCc1ccc(NC(=O)c3cccc4c(=O)c5cccc(OC)c5[nH]c34)cc1)C2	235 to 237 °C
CCCCOC(=O)[C@H]1CN(c2ccc(C3CCSCC3)c(F)c2)C(=O)O1	98 to 100 °C
CCCCc1c2c(nc3c1CCCC3)CCCC2	35 to 37 °C
N#Cc1c(N)oc2ccc(Cl)cc2c1=O	340 °C
CNC(=O)c1ccccc1Nc1nc(Nc2ccc3c(c2)CCN(S(C)(=O)=O)CC3)ncc1Cl	251 to 256 °C

The remaining lines, values ahead:

melting point	Structure (SMILES)
169 to 171 °C	CN1CCN(c2cc3ccccc3c(=O)[nH]2)[C@@H](CO)C1
131 to 132 °C	N#CC(c1ccc(Cl)cc1)N(Cc1ccccc1)C(=O)C(F)(F)F (centres undefined)
133 to 135 °C	CCCn1c(NC(=O)c2ccccc2)nc2ccccc2c1=O
252 °C	Cc1c(O)c(=O)[nH]c2ccccc2c1=O
137 to 138 °C	CS(=O)(=O)c1ccc(-n2nc(C(F)(F)F)cc2-c2ccc(-c3cc4ccccc4o3)cc2)cc1
107 to 109 °C	CC(=O)N1[C@@H](C)[C@@H]2C(=O)N(Cc3ccccc3)C(=O)[C@@H]2[C@@H]1c1ccc(C#N)cc1 (racemic)
85 to 86 °C	O=C(O)CCCCCCCNS(=O)(=O)c1cccc(Cl)c1
134 to 136 °C	CCOC(=O)c1ccc(S(=O)(=O)C(Br)(Br)Br)cc1
98 to 100 °C	Cc1ccnc(C(=O)c2ccc(F)cc2)c1
98 to 102 °C	COc1nc2c(OCc3ccccc3)cccc2n1C
> 260 °C	Nc1nc2ccc(S(=O)(=O)n3c(CCC(=O)O)cc4nc(Cl)ccc43)cc2s1
> 300 °C	O=C1C2=C(c3ccccc3)N(c3ccccc3)C(=O)C2=C(c2ccccc2)N1c1ccccc1
191 to 193 °C	COc1cccc(Nc2ncc3cc4ccccc4n3n2)c1
163 to 165 °C	O=C(O)CCn1cnc2c(Cl)ncnc21
89 to 91 °C	CC(=O)c1ccc2c(c1)CCN(Cc1ccccc1)CC2
129 to 130 °C	COc1cc(OC)c2c(C)c(CCCl)c(=O)oc2c1
100 °C	CCCCCCCNC(=O)Nc1ccccc1CCc1cc(C(C)(C)C)c(O)c(C(C)(C)C)c1
164 °C	NS(=O)(=O)c1cc(C(=O)Nn2cnc3cc(C(F)(F)F)ccc32)ccc1Cl
165 to 167 °C	CN(C)c1ccc2c(c1)NCC2
174 °C	COC(=O)COc1cccnc1

melting point	Structure (SMILES)
156 to 158 °C	Cc1cc(C(N)=O)ccc1NC1CCN(Cc2ccccc2)CC1
67 to 68.5 °C	CC(C)OC(=O)Cc1ccc2c(c1)C(=O)c1ccccc1CO2
145 to 146 °C	O=C(NCCCO)c1cccc(-c2ccc3c(n2)N(Cc2ccc(Cl)cc2Cl)CC3)c1
216 to 218 °C	COc1ccc(C2=NN(C3CCN(C(=O)N4CCNC4=O)CC3)C(=O)[C@H]3CC=CC[C@@H]23)cc1Cl (relative stereo)
280 °C	O=c1[nH]c2cc(C(F)(F)F)ccc2n(CCn2ncnn2)c1=O
278 to 280 °C	CC1NC(=O)NN=C1c1ccc(N2CCCC2=O)cc1 (centres undefined)
65 to 66 °C	O=[N+]([O-])c1ccc(-c2cc(-c3ccc(Cl)cc3)[nH]c2C(F)(F)F)s1
114 °C	N#Cc1cc(F)c(F)cc1N
169 to 171 °C	CCCc1nc2c(N)nc3cc(-c4ccccc4)ccc3c2n1CCCONC(=O)C(C)C
251 to 254 °C	COc1cc(OCC(=O)O)c2c3c(n(Cc4ccccc4)c2c1)CCCC3C(N)=O (centres undefined)
88 to 89 °C	CCOC(=O)/C(=C\Nc1ccc(OC)c(OC)c1)c1ccc(OC)cc1
154 to 156 °C	CCCn1ncnc1COc1nc2c(nnn2-c2ccccc2)c2ccccc12
140 to 143 °C	CC(=O)C(=Cc1ccc(S(C)(=O)=O)c(F)c1)C(C)=O
69 to 71 °C	O=C(OCc1ccccc1)[C@@H]1COC(c2ccccc2OCc2ccccc2)=N1
204 to 207 °C	CC(C)OC(=O)c1cc(-n2c(=O)[nH]c3c(c2=O)CCC3)c(F)cc1Cl
166 to 168 °C	COc1cc([N+](=O)[O-])c2nccc(C)c2c1Oc1ccc(Cl)cc1Cl
118 °C	CCOC(=O)c1cnc2ccc(-c3ccc(C(F)(F)F)cc3)cn12
198 to 201 °C	O=C(O)CN1C(=O)C(=Cc2ccc(OCCc3ccccc3)c(OCc3ccccc3)c2)SC1=S
177 to 180 °C	O=C(c1ccc([N+](=O)[O-])cc1)N1CC2CC2(c2ccc(Cl)cc2)C1 (centres undefined)
105 to 108 °C	c1cc(-c2ccc(OCCCN3CCCC3)cc2)ccc1OCCCN1CCCCC1

melting point	Structure (SMILES)
177 to 179 °C	Cc1c(CC2CCc3c(c4ccccc4n3CC3CCCC3)C2=O)ncn1C(c1ccccc1)(c1ccccc1)c1ccccc1 (centres undefined)
70.4 °C	COc1cc(C(=O)CSC)ccc1OC(C)=O
281 to 289 °C	O=c1[nH]c2cc([N+](=O)[O-])c(S(=O)(=O)NCCO)cc2[nH]c1=O
206 to 208 °C	COc1ccc(-c2ccc3c(c2)c2ccc(-c4ccc(OC)cc4)nc2n3S(=O)(=O)c2ccccc2)cc1
121 to 125 °C	O=C(NCC12CC3CC(CC(C3)C1)C2)c1cc(-c2cccnc2N2CCC[C@H]2C(=O)O)ccc1Cl
96 to 98 °C	COCCn1nc(CC(C)C)c2cn(Cc3cccc4ccccc34)cc2c1=O
57 to 60 °C	CCOC(=O)Cn1nnnc1Cl
29 to 30 °C	C=C(C)COc1ccc(C(=O)C=Cc2c[nH]c3ccccc23)c(O)c1
129 to 130 °C	Cc1cc(C(=O)CCl)c(N)cc1Cl
> 260 °C	NC(=Nc1ccc(CCNC(=O)c2cc(N)ccc2O)cc1)c1cccs1
157 °C	CCOC(=O)C1CN(CC)c2nc(SC)ncc2C1=O (centres undefined)
51 to 53 °C	ClC=C(Cl)n1c2ccccc2c2ccccc21
74 °C	CCCCOc1ccc(-c2nc(Cl)c(C=O)[nH]2)cc1
72 to 74 °C	CCC(CC)Nc1cc(C)nc(Oc2c(C)cc(Cl)cc2C)c1N
290 to 292 °C	O=C(O)c1ccc2nc(-c3ccccc3)c(-c3ccccc3)nc2c1
216 to 217 °C	C=CCn1c(C)nc2c3c(c(C(=O)OC)cc21)C(=O)CC1(Cc2ccccc2C1)N3
248 to 249 °C	CSC1=NC(=O)C(=Cc2cc(C(C)(C)C)c(O)c(C(C)(C)C)c2)N1
233 to 236 °C	CNc1nc(NCc2ccc(NC(=O)c3ccc(Cl)nc3)cc2)c2c(C)cccc2n1
122 to 123 °C	CC(C)c1ccc(N(Cc2ccc(Cl)cc2)C(=O)C2CCCc3ccccc32)cc1 (centres undefined)

Reference: a melting point compilation (Tetko et al.; mined from patent text by program, amines drawn as free bases though some values may be those of a salt)
